{
  "source": "patent US8129417B2",
  "about": "“Substituted octahydrocyclopenta[C]pyrrol-4-amines as calcium channel blockers” (Abbott Laboratories, priority 2008, dated 2012)",
  "data": [
    {"molecular_target": "human Cav2.2 (Homo sapiens, UniProt Q00975)", "sequence (Q00975 whole entry)": "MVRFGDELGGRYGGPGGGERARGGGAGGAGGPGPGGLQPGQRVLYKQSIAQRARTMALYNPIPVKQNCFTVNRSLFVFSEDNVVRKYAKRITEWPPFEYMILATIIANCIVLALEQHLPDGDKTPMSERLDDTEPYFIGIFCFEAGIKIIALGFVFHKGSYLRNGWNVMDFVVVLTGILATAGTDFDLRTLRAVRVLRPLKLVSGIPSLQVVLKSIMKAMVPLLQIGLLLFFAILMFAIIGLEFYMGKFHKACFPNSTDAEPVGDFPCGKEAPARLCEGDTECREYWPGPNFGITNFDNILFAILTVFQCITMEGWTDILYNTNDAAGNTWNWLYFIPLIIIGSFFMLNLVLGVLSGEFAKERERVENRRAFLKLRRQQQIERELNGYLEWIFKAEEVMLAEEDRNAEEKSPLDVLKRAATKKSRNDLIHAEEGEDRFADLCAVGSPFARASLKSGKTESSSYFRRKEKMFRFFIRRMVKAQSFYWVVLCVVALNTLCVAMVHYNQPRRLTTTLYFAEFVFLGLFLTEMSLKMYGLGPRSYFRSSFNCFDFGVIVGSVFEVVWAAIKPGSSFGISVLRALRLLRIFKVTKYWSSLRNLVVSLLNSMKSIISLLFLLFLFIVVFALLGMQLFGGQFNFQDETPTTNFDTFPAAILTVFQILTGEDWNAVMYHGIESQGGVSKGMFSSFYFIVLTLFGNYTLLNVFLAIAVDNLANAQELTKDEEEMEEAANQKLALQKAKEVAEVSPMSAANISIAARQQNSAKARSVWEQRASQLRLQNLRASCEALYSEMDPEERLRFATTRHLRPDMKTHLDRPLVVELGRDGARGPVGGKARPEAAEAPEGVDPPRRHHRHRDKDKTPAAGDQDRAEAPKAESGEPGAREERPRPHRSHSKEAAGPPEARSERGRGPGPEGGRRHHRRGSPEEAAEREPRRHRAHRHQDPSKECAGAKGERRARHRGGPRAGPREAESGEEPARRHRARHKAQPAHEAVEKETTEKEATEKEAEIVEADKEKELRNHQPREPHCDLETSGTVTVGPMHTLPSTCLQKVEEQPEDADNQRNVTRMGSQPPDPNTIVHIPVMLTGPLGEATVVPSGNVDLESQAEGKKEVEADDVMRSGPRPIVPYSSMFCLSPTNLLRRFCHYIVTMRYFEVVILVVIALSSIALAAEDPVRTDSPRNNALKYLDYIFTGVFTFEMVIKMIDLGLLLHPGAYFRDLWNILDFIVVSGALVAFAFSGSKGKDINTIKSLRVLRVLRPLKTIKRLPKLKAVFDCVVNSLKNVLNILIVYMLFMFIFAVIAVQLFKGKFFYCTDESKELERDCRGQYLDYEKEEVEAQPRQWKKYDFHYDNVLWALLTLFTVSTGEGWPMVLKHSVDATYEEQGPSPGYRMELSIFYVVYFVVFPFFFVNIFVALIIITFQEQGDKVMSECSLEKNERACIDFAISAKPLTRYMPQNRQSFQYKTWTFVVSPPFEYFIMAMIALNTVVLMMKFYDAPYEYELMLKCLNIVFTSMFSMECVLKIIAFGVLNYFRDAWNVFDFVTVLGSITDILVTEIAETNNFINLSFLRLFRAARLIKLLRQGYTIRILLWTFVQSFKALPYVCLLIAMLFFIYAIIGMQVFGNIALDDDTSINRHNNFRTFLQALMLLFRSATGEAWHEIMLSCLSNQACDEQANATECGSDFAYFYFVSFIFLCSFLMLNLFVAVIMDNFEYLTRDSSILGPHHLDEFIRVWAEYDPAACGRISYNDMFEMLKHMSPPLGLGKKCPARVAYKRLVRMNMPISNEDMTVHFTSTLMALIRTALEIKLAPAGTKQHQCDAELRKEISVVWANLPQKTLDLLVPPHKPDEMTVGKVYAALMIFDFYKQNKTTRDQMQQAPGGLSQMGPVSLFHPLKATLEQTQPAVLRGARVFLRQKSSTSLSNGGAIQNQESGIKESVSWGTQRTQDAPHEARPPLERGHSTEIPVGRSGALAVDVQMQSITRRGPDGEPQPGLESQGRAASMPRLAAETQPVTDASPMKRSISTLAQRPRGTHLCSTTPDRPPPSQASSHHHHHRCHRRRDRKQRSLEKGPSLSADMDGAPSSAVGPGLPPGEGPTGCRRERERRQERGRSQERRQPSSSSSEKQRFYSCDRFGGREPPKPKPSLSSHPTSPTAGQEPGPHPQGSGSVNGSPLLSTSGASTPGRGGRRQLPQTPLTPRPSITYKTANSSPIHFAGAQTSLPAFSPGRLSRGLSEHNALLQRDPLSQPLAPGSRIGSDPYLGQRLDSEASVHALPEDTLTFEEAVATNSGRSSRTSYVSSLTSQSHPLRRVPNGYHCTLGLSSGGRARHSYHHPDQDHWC", "sequence (P54289 25-946 partner limits assumed)": "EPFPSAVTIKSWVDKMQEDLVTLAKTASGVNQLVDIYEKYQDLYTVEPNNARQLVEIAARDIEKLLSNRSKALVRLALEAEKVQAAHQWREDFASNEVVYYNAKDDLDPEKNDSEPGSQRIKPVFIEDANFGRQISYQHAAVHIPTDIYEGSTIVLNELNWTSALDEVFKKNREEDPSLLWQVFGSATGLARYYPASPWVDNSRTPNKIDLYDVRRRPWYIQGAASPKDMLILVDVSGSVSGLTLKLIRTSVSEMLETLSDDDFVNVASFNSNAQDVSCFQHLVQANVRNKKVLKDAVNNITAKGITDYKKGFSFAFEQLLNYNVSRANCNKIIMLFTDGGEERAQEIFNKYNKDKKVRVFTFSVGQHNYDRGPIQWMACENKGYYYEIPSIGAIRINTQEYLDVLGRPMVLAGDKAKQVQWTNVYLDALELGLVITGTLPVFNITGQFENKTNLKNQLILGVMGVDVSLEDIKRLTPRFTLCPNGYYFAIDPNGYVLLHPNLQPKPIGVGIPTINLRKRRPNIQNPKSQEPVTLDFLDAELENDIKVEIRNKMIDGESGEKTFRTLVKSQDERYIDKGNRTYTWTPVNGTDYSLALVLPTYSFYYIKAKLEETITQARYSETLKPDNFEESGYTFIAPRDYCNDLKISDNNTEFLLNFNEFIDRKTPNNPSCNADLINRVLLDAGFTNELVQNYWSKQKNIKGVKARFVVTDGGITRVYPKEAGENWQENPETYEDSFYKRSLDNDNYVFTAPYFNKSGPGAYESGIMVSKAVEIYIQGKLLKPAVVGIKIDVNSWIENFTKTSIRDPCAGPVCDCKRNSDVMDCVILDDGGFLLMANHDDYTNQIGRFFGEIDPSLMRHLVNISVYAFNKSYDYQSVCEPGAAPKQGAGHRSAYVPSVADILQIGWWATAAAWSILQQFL", "sequence (P54289 947-1103 partner limits assumed)": "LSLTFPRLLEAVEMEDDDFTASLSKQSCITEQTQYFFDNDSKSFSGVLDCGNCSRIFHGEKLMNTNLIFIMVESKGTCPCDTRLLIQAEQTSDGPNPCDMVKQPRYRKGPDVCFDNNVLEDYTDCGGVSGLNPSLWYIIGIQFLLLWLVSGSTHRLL", "sequence (P54284 whole entry partner)": "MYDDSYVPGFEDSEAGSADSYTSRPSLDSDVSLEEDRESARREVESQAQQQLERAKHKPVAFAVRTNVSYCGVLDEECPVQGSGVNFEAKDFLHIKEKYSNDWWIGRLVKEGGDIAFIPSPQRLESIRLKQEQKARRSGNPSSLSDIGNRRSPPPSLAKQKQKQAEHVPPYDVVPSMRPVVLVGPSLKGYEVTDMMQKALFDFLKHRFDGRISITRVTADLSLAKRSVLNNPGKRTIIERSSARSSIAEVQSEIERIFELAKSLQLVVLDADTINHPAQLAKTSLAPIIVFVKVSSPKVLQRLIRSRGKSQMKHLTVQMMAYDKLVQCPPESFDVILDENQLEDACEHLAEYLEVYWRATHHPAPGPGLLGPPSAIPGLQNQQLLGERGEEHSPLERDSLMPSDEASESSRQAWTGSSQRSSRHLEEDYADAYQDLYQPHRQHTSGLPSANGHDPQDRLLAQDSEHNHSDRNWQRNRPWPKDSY", "test": "Assessment of calcium channel activity using FLIPR (Ca2+ influx in IMR32 cells)", "type": "cell-based", "conditions": "3 minute pre-incubation with compound (*), 2 μM nifedipine, depolarized with 80 mM KCl", "summary_of_the_method": "(§1)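 IC50 came from sigmoidal non-linear regression of percent inhibition, relative to uninhibited activity, across compound concentrations. Calcium influx was measured by FLIPR in IMR32 cells plated at 1-1.2×10^5 cells/well and cultured 48 h at 37 °C.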", "units": {"IC50": "nM"}, "values": [
      {"molecule": "N-[(3aS*,4R*,6aR*)-2-benzyloctahydrocyclopenta[c]pyrrol-4-yl]-2-cyclohexyl-2-phenylacetamide [Example 4]", "IC50": 3500}
    ]},
    {"molecular_target": "human Cav2.2 (Homo sapiens, UniProt Q00975)", "test": "Assessment of calcium channel activity using FLIPR (Ca2+ influx in IMR32 cells)", "type": "cell-based", "conditions": "60 minute pre-incubation with compound, 2 μM nifedipine, depolarized with 80 mM KCl", "summary_of_the_method": "as §1", "units": {"IC50": "nM"}, "values": [
      {"molecule": "CCC[C@@H](C(=O)N[C@H]1CC[C@@H]2CN(S(=O)(=O)c3ccc(F)c(Cl)c3)C[C@@H]21)N(C)C(=O)OC(C)(C)C", "note": "[Example 529, Tert-butyl (S)-1-((3aR,4S,6aS)-2-(3-chloro-4-fluorophenylsulfonyl)octahydrocyclopenta[c]pyrrol-4-ylamino)-1-oxopentan-2-yl(methyl)carbamate]", "IC50": 960},
      {"molecule": "CCC[C@@H](C(=O)N[C@H]1CC[C@@H]2CN(S(=O)(=O)c3cccnc3)C[C@@H]21)N(C)C(=O)OC(C)(C)C", "note": "[Example 530, Tert-butyl methyl((S)-1-oxo-1-((3aR,4S,6aS)-2-(pyridin-3-ylsulfonyl)octahydrocyclopenta[c]pyrrol-4-ylamino)pentan-2-yl)carbamate]", "IC50": 7630},
      {"molecule": "CCC[C@H](NC)C(=O)N[C@H]1CC[C@@H]2CN(S(=O)(=O)c3ccc(F)c(Cl)c3)C[C@@H]21", "note": "[Example 534, N^1-{(3aR,4S,6aS)-2-[(3-chloro-4-fluorophenyl)sulfonyl]octahydrocyclopenta[c]pyrrol-4-yl}-N^2-methyl-L-norvalinamide]", "IC50": 6380},
      {"molecule": "CCC[C@H](NC)C(=O)N[C@H]1CC[C@@H]2CN(S(=O)(=O)c3ccc(F)cc3Cl)C[C@@H]21", "note": "[Example 539, N^1-{(3aR,4S,6aS)-2-[(2-chloro-4-fluorophenyl)sulfonyl]octahydrocyclopenta[c]pyrrol-4-yl}-N^2-methyl-L-norvalinamide]", "IC50": 4390},
      {"molecule": "CCC[C@H](NC)C(=O)N[C@H]1CC[C@@H]2CN(S(=O)(=O)c3cccc4ccccc34)C[C@@H]21", "note": "[Example 540, N^2-methyl-N^1-[(3aR,4S,6aS)-2-(1-naphthylsulfonyl)octahydrocyclopenta[c]pyrrol-4-yl]-L-norvalinamide]", "IC50": 1670},
      {"molecule": "CCC[C@H](NC)C(=O)N[C@H]1CC[C@@H]2CN(S(=O)(=O)c3ccc(Br)c(C(F)(F)F)c3)C[C@@H]21", "note": "[Example 541, N^1-((3aR,4S,6aS)-2-{[4-bromo-3-(trifluoromethyl)phenyl]sulfonyl}octahydrocyclopenta[c]pyrrol-4-yl)-N^2-methyl-L-norvalinamide]", "IC50": 2570},
      {"molecule": "CCC[C@H](NC)C(=O)N[C@H]1CC[C@@H]2CN(S(=O)(=O)c3ccc(Cl)c(Cl)c3)C[C@@H]21", "note": "[Example 542, N^1-{(3aR,4S,6aS)-2-[(3,4-dichlorophenyl)sulfonyl]octahydrocyclopenta[c]pyrrol-4-yl}-N^2-methyl-L-norvalinamide]", "IC50": 2360},
      {"molecule": "CCC[C@H](NC)C(=O)N[C@H]1CC[C@@H]2CN(S(=O)(=O)c3ccc(-c4ccccc4)cc3)C[C@@H]21", "note": "[Example 544, N^1-[(3aR,4S,6aS)-2-(1,1′-biphenyl-4-ylsulfonyl)octahydrocyclopenta[c]pyrrol-4-yl]-N^2-methyl-L-norvalinamide]", "IC50": 2150},
      {"molecule": "CCC[C@H](NC)C(=O)N[C@H]1CC[C@@H]2CN(S(=O)(=O)c3cccc(C#N)c3)C[C@@H]21", "note": "[Example 546, N^1-{(3aR,4S,6aS)-2-[(3-cyanophenyl)sulfonyl]octahydrocyclopenta[c]pyrrol-4-yl}-N^2-methyl-L-norvalinamide]", "IC50": 6320},
      {"molecule": "CCC[C@H](NC)C(=O)N[C@H]1CC[C@@H]2CN(S(=O)(=O)c3cccc(Cl)c3Cl)C[C@@H]21", "note": "[Example 548, N^1-{(3aR,4S,6aS)-2-[(2,3-dichlorophenyl)sulfonyl]octahydrocyclopenta[c]pyrrol-4-yl}-N^2-methyl-L-norvalinamide]", "IC50": 1050},
      {"molecule": "CCC[C@H](NC)C(=O)N[C@H]1CC[C@@H]2CN(S(=O)(=O)c3ccccc3C(F)(F)F)C[C@@H]21", "note": "[Example 550, N^2-methyl-N^1-((3aR,4S,6aS)-2-{[2-(trifluoromethyl)phenyl]sulfonyl}octahydrocyclopenta[c]pyrrol-4-yl)-L-norvalinamide]", "IC50": 2570},
      {"molecule": "CCC[C@H](NC)C(=O)N[C@H]1CC[C@@H]2CN(S(=O)(=O)c3cccc(Br)c3)C[C@@H]21", "note": "[Example 551, N^1-{(3aR,4S,6aS)-2-[(3-bromophenyl)sulfonyl]octahydrocyclopenta[c]pyrrol-4-yl}-N^2-methyl-L-norvalinamide]", "IC50": 2490},
      {"molecule": "CCC[C@H](NC)C(=O)N[C@H]1CC[C@@H]2CN(S(=O)(=O)c3ccc(C(F)(F)F)cc3Cl)C[C@@H]21", "note": "[Example 552, N^1-((3aR,4S,6aS)-2-{[2-chloro-4-(trifluoromethyl)phenyl]sulfonyl}octahydrocyclopenta[c]pyrrol-4-yl)-N^2-methyl-L-norvalinamide]", "IC50": 780},
      {"molecule": "CCC[C@H](NC)C(=O)N[C@H]1CC[C@@H]2CN(S(=O)(=O)c3cc(C(F)(F)F)ccc3Cl)C[C@@H]21", "note": "[Example 553, N^1-((3aR,4S,6aS)-2-{[2-chloro-5-(trifluoromethyl)phenyl]sulfonyl}octahydrocyclopenta[c]pyrrol-4-yl)-N^2-methyl-L-norvalinamide]", "IC50": 1940},
      {"molecule": "CC(C)N([C@H]1CC[C@@H]2CN(Cc3ccccc3)C[C@@H]21)S(=O)(=O)c1cccc(C(F)(F)F)c1", "note": "[Example 555, N-[(3aR,4S,6aS)-2-benzyloctahydrocyclopenta[c]pyrrol-4-yl]-N-isopropyl-3-(trifluoromethyl)benzenesulfonamide]", "IC50": 2510},
      {"molecule": "O=S(=O)(N[C@H]1CC[C@@H]2CN(Cc3ccccc3)C[C@@H]21)c1cccc(C(F)(F)F)c1", "note": "[Example 556, N-[(3aR,4S,6aS)-2-benzyloctahydrocyclopenta[c]pyrrol-4-yl]-3-(trifluoromethyl)benzenesulfonamide]", "IC50": 2580},
      {"molecule": "CN[C@@H](CC(C)C)C(=O)N1C[C@H]2CC[C@H](N(C(C)C)S(=O)(=O)c3cccc(C(F)(F)F)c3)[C@H]2C1", "note": "[Example 557, N-isopropyl-N-[(3aR,4S,6aS)-2-(N-methyl-L-leucyl)octahydrocyclopenta[c]pyrrol-4-yl]-3-(trifluoromethyl)benzenesulfonamide]", "IC50": 1140},
      {"molecule": "CN[C@@H](CC(C)C)C(=O)N1C[C@H]2CC[C@H](NS(=O)(=O)c3cccc(C(F)(F)F)c3)[C@H]2C1", "note": "[Example 558, N-[(3aR,4S,6aS)-2-(N-methyl-L-leucyl)octahydrocyclopenta[c]pyrrol-4-yl]-3-(trifluoromethyl)benzenesulfonamide]", "IC50": 4880},
      {"molecule": "CNC(CC(C)C)C(=O)N1CC2CCC(N(C3CC3)S(=O)(=O)c3cccc(C(F)(F)F)c3)C2C1", "note": "[Example 559, N-cyclopropyl-N-[(3aS*,4S*,6aR*)-[2-(N-methyl-L-leucyl)octahydrocyclopenta[c]pyrrol-4-yl]-3-(trifluoromethyl)benzenesulfonamide]", "IC50": 1680},
      {"molecule": "N-((3aR,4S,6aS)-2-{[2-chloro-4-(trifluoromethyl)phenyl]sulfonyl}octahydrocyclopenta[c]pyrrol-4-yl)-N-methyl-L-phenylalaninamide [Example 432]", "IC50": 1670},
      {"molecule": "N-methyl-N-((3aR,4S,6aS)-2-{[4-(trifluoromethyl)phenyl]sulfonyl}octahydrocyclopenta[c]pyrrol-4-yl)-L-phenylalaninamide [Example 430]", "IC50": 1750}
    ]},
    {"tested_on": "Sprague Dawley rats", "test": "Capsaicin induced secondary mechanical hyperalgesia model", "type": "in vivo", "conditions": "po, 1 h, read-out: % inhibition @ 30 mg/kg p.o., 60 minutes before testing, secondary mechanical hyperalgesia 180 minutes after intraplantar capsaicin, rat", "experimental": "(ii) In Vivo Data—Capsaicin Induced Secondary Mechanical Hyperalgesia Model:\nSprague Dawley rats were briefly restrained, and capsaicin was administered at 10 μg in 10 μL of vehicle by intraplantar injection into the center of the right hind paw. Secondary mechanical hyperalgesia (SMH) was measured at the heel away from the site of injection 180 minutes following capsaicin exposure. Compounds and gabapentin (positive control), were administered p.o. 60 minutes before testing (2 hours after capsaicin) or i.p. 30 minutes before testing (2.5 hours after capsaicin). SMH was measured using calibrated von Frey filaments (Stoelting, Woodale, Ill.). Following the 1 hour habituation in the testing room, rats were moved to individual plexiglass chambers that sit on top of a wire mesh to allow for access for stimulation of the plantar surface of the hind paws. Rats were allowed to acclimate to the new chambers for 15 minutes before the onset of testing. The paw withdrawal threshold was determined by increasing and decreasing stimulus intensity (force: g) and calculated using Dixon's up-down method (Chaplan, S. R.; Bach, F. W.; Pogrel, J. W.; Chung, J. M.; Yaksh, T. L.; Quantitative assessment of tactile allodynia in the rat paw. J. Neuroscience Methods 1994, 53(1), 55-63.). The filaments (maximum force of 15.0 g) were held in place for 8 seconds or until there was a withdrawal response from the mechanical stimulation.", "units": {"inhibition in vivo at 30 mg/kg": "%"}, "values": [
      {"molecule": "CC(C)C[C@H](NS(C)(=O)=O)C(=O)N[C@@H]1CC[C@H]2CN(Cc3cccc(C(F)(F)F)c3)C[C@H]21", "note": "[Example 170, N^2-(methylsulfonyl)-N^1-{(3aS,4R,6aR)-2-[3-(trifluoromethyl)benzyl]octahydrocyclopenta[c]pyrrol-4-yl}-L-leucinamide]", "inhibition in vivo at 30 mg/kg": 57},
      {"molecule": "CC(C)C[C@H](NS(=O)(=O)C1CC1)C(=O)N[C@@H]1CC[C@H]2CN(Cc3cccc(C(F)(F)F)c3)C[C@H]21", "note": "[Example 172, N^2-(cyclopropylsulfonyl)-N^1-{(3aS,4R,6aR)-2-[3-(trifluoromethyl)benzyl]octahydrocyclopenta[c]pyrrol-4-yl}-L-leucinamide]", "inhibition in vivo at 30 mg/kg": 85},
      {"molecule": "CN[C@@H](CC(C)C)C(=O)N[C@@H]1CC[C@H]2CN(S(=O)(=O)c3ccc(C(F)(F)F)cc3)C[C@H]21", "note": "[Example 183, N^2-methyl-N^1-((3aS,4R,6aR)-2-{[4-(trifluoromethyl)phenyl]sulfonyl}octahydrocyclopenta[c]pyrrol-4-yl)-L-leucinamide]", "inhibition in vivo at 30 mg/kg": 78},
      {"molecule": "CCC[C@H](NC)C(=O)N[C@H]1CC[C@@H]2CN(S(=O)(=O)c3ccc(C(F)(F)F)cc3)C[C@@H]21", "note": "[Example 405, N^2-methyl-N^1-((3aR,4S,6aS)-2-{[4-(trifluoromethyl)phenyl]sulfonyl}octahydrocyclopenta[c]pyrrol-4-yl)-L-norvalinamide]", "inhibition in vivo at 30 mg/kg": 32},
      {"molecule": "CC(C)(C)C[C@H](NCC1CC1)C(=O)N[C@H]1CC[C@@H]2CN(c3cccc(C(F)(F)F)n3)C[C@@H]21", "note": "[Example 479, N^2-(cyclopropylmethyl)-4-methyl-N^1-{(3aR,4S,6aS)-2-[6-(trifluoromethyl)pyridin-2-yl]octahydrocyclopenta[c]pyrrol-4-yl}-L-leucinamide]", "inhibition in vivo at 30 mg/kg": 40}
    ]}
  ]
}
